# Assay: Estimated solubility of the salt in organic solvents
# Type: physicochemical
# Description: (b) The Form B salt described in (a) above was also prepared by dissolving, in a vial, 20% w of a sample of the benzoate salt prepared by the method of Example 1(b) (Form A) in a solvent such as methanol (>20 mg/ml), ethanol (>20 mg/ml), n-propanol (>20 mg/ml), isopropanol (8.5 mg/ml) or acetone (9.6 mg/ml). The figures in brackets indicate the estimated solubility of the salt in these solvents. The vial was then sealed and the suspension was homogenised at ambient temperature (20° C.) using a magnet. Stirring and temperature were maintained for a period of at least 7 days after which time a sample of the material obtained was dried and tested by XRPD. XRPD confirmed that there had been complete transformation of Form A to Form B.
# (a) Form B was prepared by dissolving, in a vial, 20% w of a sample of the furoate salt prepared by the method of Example 1(b) (Form A) in a solvent such as ethanol (16 mg/ml) or 2-butanol (8 mg/ml). The figures in brackets indicate the estimated solubility of the salt in these solvents. The vial was then sealed and the suspension was homogenised at ambient temperature (20° C.) using a magnet. Stirring and temperature were maintained for a period of at least 7 days after which time a sample of the material obtained was dried and tested by XRPD. XRPD confirmed that there had been complete transformation of Form A to Form B.
Compound,estimated solubility of the salt (2-butanol),estimated solubility of the salt (ethanol),estimated solubility of the salt (acetone),estimated solubility of the salt (isopropanol),estimated solubility of the salt (methanol),estimated solubility of the salt (n-propanol)
"CC(=O)Nc1ccc(O)cc1OC[C@@](C)(O)CNC1CCN(Cc2ccc(Cl)cc2)CC1.O=C(O)c1ccco1 [1(c), N-{2-[((2S)-3-{[1-(4-chlorobenzyl)piperidin-4-yl]amino}-2-hydroxy-2-methylpropyl)oxy]-4-hydroxyphenyl}acetamide furoate (1:1 Salt), Form A]",8 mg/mL,16 mg/mL,,,,
"CC(=O)Nc1ccc(O)cc1OC[C@@](C)(O)CNC1CCN(Cc2ccc(Cl)cc2)CC1.O=C(O)c1ccccc1 [Example 1(b), N-{2-[((2S)-3-{[1-(4chlorobenzyl)piperidin-4-yl]amino}-2-hydroxy-2-methylpropyl)oxy]-4-hydroxyphenyl}acetamide benzoate (1:1 Salt), Form A]",,> 20 mg/mL,9.6 mg/mL,8.5 mg/mL,> 20 mg/mL,> 20 mg/mL
